Test results taken from ChEMBL document CHEMBL5029164, “JNJ-67569762, A 2-Aminotetrahydropyridine-Based Selective BACE1 Inhibitor Targeting the S3 Pocket: From Discovery to Clinical Candidate” (J Med Chem, 2021).
Active and inactive are the calls of the source. No cut-off for these calls is given here.

What was measured:
Beta-secretase 1 [1] = target: T1, Beta-secretase 1 (Homo sapiens, UniProt P56817); assay: Inhibition of BACE1 (1 to 454 residues) (unknown origin) using APP harboring Swedish Lys-Met/Asn-Leu mutant-derived peptide as substrate by FRET assay
T1 sequence (P56817 whole entry, the tested form may be a part): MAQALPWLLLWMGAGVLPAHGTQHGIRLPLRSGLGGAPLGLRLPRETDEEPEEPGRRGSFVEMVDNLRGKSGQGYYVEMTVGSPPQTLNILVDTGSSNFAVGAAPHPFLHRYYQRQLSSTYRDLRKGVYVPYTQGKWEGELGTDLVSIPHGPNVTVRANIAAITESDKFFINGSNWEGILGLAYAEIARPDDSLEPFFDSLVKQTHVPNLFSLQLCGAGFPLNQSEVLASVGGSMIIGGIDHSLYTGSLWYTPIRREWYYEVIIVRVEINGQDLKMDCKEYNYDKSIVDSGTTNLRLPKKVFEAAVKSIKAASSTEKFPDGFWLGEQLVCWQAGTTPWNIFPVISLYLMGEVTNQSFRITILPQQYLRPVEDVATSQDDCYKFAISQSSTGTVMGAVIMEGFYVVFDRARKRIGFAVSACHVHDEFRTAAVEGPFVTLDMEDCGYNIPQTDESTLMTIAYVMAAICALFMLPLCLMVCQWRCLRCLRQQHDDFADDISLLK

Beta-secretase 2 = target: T2, Beta-secretase 2 (Homo sapiens, UniProt Q9Y5Z0); assay: Inhibition of BACE2 (unknown origin) using APP harboring Swedish Lys-Met/Asn-Leu mutant-derived peptide as substrate incubated for 2 hrs by FRET assay
T2 sequence (Q9Y5Z0 whole entry): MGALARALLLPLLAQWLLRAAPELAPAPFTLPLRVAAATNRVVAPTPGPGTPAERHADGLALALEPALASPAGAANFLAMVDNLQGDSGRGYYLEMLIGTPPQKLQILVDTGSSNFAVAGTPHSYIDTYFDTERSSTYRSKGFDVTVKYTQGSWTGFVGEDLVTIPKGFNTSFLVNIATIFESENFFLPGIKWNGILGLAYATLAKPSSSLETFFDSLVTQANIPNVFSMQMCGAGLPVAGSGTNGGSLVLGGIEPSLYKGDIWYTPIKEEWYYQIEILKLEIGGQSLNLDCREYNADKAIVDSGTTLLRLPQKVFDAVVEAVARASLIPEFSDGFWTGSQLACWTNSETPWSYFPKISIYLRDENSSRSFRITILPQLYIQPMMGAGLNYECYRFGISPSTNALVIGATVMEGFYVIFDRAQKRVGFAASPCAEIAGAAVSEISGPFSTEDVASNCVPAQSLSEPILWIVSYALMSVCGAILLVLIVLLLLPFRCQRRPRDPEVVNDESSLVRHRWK

Homo sapiens = organism: Homo sapiens; assay: Selectivity index, ratio of IC50 for inhibition of BACE2 (unknown origin) to IC50 for inhibition of BACE1 (1 to 454 residues) (unknown origin)
Beta-secretase 1 [2] = target: T1, Beta-secretase 1; assay: Inhibition of BACE1 in human […] cells expressing wild type APP695 assessed as reduction in amyloid beta 42 secretion incubated for 18 hrs by sandwich ELISA; type: cell-based, SKNBE2
[3] = Metabolic stability in human liver microsomes assessed as intrinsic clearance; type: ADME, Microsome; settings: read-out: CLH
[4] = Cyanide reactivity in human liver microsomes; type: ADME
[5] = Glutathione reactivity in human liver microsomes; type: ADME
Mus musculus = assay: In vivo inhibition of BACE1 in C57BL/6J mouse assessed as reduction in plasma SEZ6L level at 3.5 to 52 mg/kg,/day administered via diet for 21 days; type: functional, organism-based; settings: dose 3.5-52 mg/kg, time 21.0 day

Row | Structure (SMILES) | IC50 (Beta-secretase 1 [1]) [nM] | IC50 (Beta-secretase 2) [nM] | IC50 (Beta-secretase 1 [2]) [nM] | microsomal CLint [3] [µL/min/mg] | Ratio IC50 (Homo sapiens) | Activity [4] | Activity [5] | Ratio IC50 (Homo sapiens; tested as the 2H-labelled form) | inhibition (Mus musculus)
1 | CCc1cc([C@]2(c3ccc(F)c(-c4cccnc4C(F)F)c3)N=C(N)N(C)C2=O)cc(CC)n1 | 10 | 6700 |  |  |  |  |  |  | 
2 | C[C@@]1(S(C)(=O)=O)CC[C@@](CF)(c2cc(NC(=O)c3cc4c(cn3)OCCCO4)ccc2F)N=C1N | 28 | 1150 | 76 | 16.7 | 41 |  |  |  | 
3 | [2H]C1([2H])Oc2cnc(C(=O)Nc3ccc(F)c([C@]4(CF)CC[C@@](C)(S(C)(=O)=O)C(N)=N4)c3)cc2OC1([2H])[2H] |  |  |  | 7.9 |  | Active | Not Active |  | 
4 | C[C@@]1(S(C)(=O)=O)CC[C@@](CF)(c2cc(NC(=O)c3ccc(F)cn3)ccc2F)N=C1N |  | 3.1 | 3.3 | < 7.7 |  |  |  |  | 
5 | C[C@@]1(S(C)(=O)=O)CC[C@@](CF)(c2cc(NC(=O)c3cc4c(cn3)OCCO4)ccc2F)N=C1N | 2.3 | 340 | 3 | 11.3 | 145 | Active | Not Active | 102 | 
6 | C[C@@]1(c2cc(NC(=O)c3ccc(C#N)cn3)ccc2F)C[C@@H](C(F)(F)F)OC(N)=N1 |  |  |  |  |  |  |  |  | Active
7 | C[C@@]1(S(C)(=O)=O)CC[C@@](CF)(c2cc(NC(=O)c3cc4c(cn3)OC(F)(F)O4)ccc2F)N=C1N |  |  |  | < 7.7 | 38 | Active | Not Active |  | 
8 | C[C@@]1(S(C)(=O)=O)CC[C@@](CF)(c2cc(NC(=O)c3cc4c(cn3)OC(F)(F)CO4)ccc2F)N=C1N | 1.4 |  |  | < 7.7 | 48 | Active | Not Active |  | 

Second part, led by results:

Row | IC50 (Beta-secretase 1 [1]) [nM] | IC50 (Beta-secretase 2) [nM] | IC50 (Beta-secretase 1 [2]) [nM] | microsomal CLint [3] [µL/min/mg] | Structure (SMILES) | Ratio IC50 (Homo sapiens) | Activity [4] | Activity [5] | Ratio IC50 (Homo sapiens; tested as the 2H-labelled form) | inhibition (Mus musculus)
9 | 9.5 | 189 | 15 | < 7.7 | COc1cc(C(=O)Nc2ccc(F)c([C@]3(CF)CC[C@@](C)(S(C)(=O)=O)C(N)=N3)c2)ncn1 | 19 |  |  |  | 
10 | 2.3 | 47 | 11 | 36.4 | C[C@@]1(S(C)(=O)=O)CC[C@@](CF)(c2cc(NC(=O)c3cc4c(cn3)OCO4)ccc2F)N=C1N |  |  |  |  | 
11 | 10 | 468 | 6.8 | < 7.7 | CC(C)S(=O)(=O)[C@]1(C)CC[C@@](CF)(c2cc(NC(=O)c3cc4c(cn3)OC(F)(F)O4)ccc2F)N=C1N | 46 |  |  |  | 
12 | 2 | 16 | 2.3 |  | C[C@@]1(S(C)(=O)=O)CC[C@@](CF)(c2cc(NC(=O)c3cnc(OCF)cn3)ccc2F)N=C1N |  |  |  |  | 
